This passage reports IC50 results from US11014895B2, “Heterocyclic urea compound, and drug composition and application thereof” (CHINA PHARMACEUTICAL UNIVERSITY, priority 2017, dated 2021).

For experiment [1], the target named is T1, IDO1 enzyme in the Hela cell (Homo sapiens, UniProt P14902).
T1 construct: endogenous in cells; host or cells: HeLa cells stimulated with interferon γ (100 ng/ml)
In words: Cell activity: interferon γ-stimulated Hela cells, absorbance of supernatant at 480 nm. It is filed as cell-based. Conditions: interferon γ 100 ng/ml, 72 hours. As to the method:
(2) Method for Determining Cell Activity
Hela cells were cultured and passaged in a DMEM medium supplemented with antibiotics in a 37° C. CO2 incubator, inoculated into a 96-well plate for overnight culture, then 1 μl of heterocyclic urea compound with appropriate concentration was added to each well, and then 100 μl of interferon γ (final concentration was 100 ng/ml) was added. After the cells were continuously cultured for 72 hours, 70 μl of cell culture supernatant was added to a 96-well V-bottom plate, 5 μl of trichloroacetic acid (6.1 N) was added to each well, incubated at 50° C. for 30 min, then taken out and centrifuged at […] for 10 min. The above centrifuged supernatant was transferred to a 384-well microplate (20 μl/well), then 20 μl of 2% didimethylaminobenzaldehyde acetic acid solution was added to each well, shaken and mixed evenly, then photometric absorption was performed at 480 nm, and values were measured.

The target of the next experiment is IDO1 enzyme (Homo sapiens, UniProt P14902). In words: Determination of biochemical activity of IDO1 enzyme (absorbance at 320 nm). Conditions: room temperature, 3 hours. As to the method: (1) Method for Determining Biochemical Activity of IDO1 Enzyme
Chain of IDO1 enzyme (P14902 whole entry): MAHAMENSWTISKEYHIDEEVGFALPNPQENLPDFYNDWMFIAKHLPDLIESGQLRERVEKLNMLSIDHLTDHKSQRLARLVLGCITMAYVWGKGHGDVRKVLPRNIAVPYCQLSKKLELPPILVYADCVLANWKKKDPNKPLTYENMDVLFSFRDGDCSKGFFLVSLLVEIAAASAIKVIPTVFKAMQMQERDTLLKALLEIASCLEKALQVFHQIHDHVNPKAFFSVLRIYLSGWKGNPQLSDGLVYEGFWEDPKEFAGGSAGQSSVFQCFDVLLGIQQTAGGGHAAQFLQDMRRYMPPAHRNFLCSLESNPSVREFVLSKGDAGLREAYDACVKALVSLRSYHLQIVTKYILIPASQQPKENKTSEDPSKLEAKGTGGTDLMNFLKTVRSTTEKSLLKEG
Firstly, 15 μl of buffer solution of sodium hydrogen phosphate (PH:7-8), 5 μl of reaction buffer solution containing a proper amount of IDO-1 enzyme and heterocyclic urea compound prepared by the invention were added into wells of a microplate, mixed evenly, and reacted at room temperature for 3 hours; then a light absorption value at 320 nm wavelength was detected by using Envision Multilabel Reader of PE company, an inhibition rate of the heterocyclic urea compound on the enzyme reaction was calculated according to an absorption ratio, and an IC50 value of the heterocyclic urea compound was calculated through analysis by GraphPad.

T1 sequence (P14902 whole entry): as above

In the case of `O=C(Nc1nocc1/C(=N/O)Nc1ccc(F)c(Br)c1)NC1CCCCC1` [Embodiment 82, (Z)-1-(4-(N-(3-bromo-4-fluorophenyl)-N′-hydroxyaminoiminomethyl)-isoxazole-3-substituted)-3-(cyclohexyl)urea], the IC50 (in experiment [1]; at IDO1 enzyme) was 0.1 to 1 µM in each case.
For `Nc1ccc(NC(=S)Nc2nonc2/C(=N/O)Nc2ccc(F)c(Br)c2)cc1` [Embodiment 118, (Z)-1-(4-(N-(3-bromo-4-fluorophenyl)-N′-hydroxyaminoiminomethyl)-1,2,5-oxadiazole-3-substituted)-3-(4-aminophenyl)thiourea], the IC50 (in experiment [1]; against IDO1 enzyme) was below 0.001 µM in each case.
Regarding `NCCCNC(=O)Nc1nonc1/C(=N/O)Nc1ccc(F)c(Br)c1` [Embodiment 14, (Z)-1-(4-(N-(3-bromo-4-fluorophenyl)-N′-hydroxyaminoiminomethyl)-1,2,5-oxadiazole-3-substituted)-3-(3-aminopropane)urea], the IC50 (in experiment [1]; on IDO1 enzyme) was below 0.001 µM each time.
As for `O=C(Nc1nocc1/C(=N/O)Nc1ccc(F)c(Br)c1)Nc1cccc2[nH]ccc12` [Embodiment 94, (Z)-1-(4-(N-(3-bromo-4-fluorophenyl)-N′-hydroxyaminoiminomethyl)-isoxazole-3-substituted)-3-(4-aminoindole)urea], the concentration for half-maximal inhibition (IC50) (in experiment [1]; against IDO1 enzyme) was 0.1 to 1 µM in each case.
As to `O/N=C(\Nc1ccc(F)c(Cl)c1)c1nocc1NC(=S)Nc1ccccc1` [Embodiment 131, (Z)-1-(4-(N-(3-chloro-4-fluorophenyl)-N′-hydroxyaminoiminomethyl)-isoxazole-3-substituted)-4-(phenyl)thiourea], the half-maximal inhibitory concentration (IC50) (in experiment [1]; at IDO1 enzyme) was 0.1 to 1 µM each time.
As for `O/N=C(\Nc1ccc(F)c(Br)c1)c1nonc1NC(=S)Nc1ccc(O)cc1` [Embodiment 117, (Z)-1-(4-(N-(3-bromo-4-fluorophenyl)-N′-hydroxyaminoiminomethyl)-1,2,5-oxadiazole-3-substituted)-3-(4-hydroxyphenyl)thiourea], the IC50 (in experiment [1]; against IDO1 enzyme) was below 0.001 µM each time.
`N#Cc1ccc(NC(=O)Nc2nonc2/C(=N/O)Nc2ccc(F)cc2)cc1` [Embodiment 57, (Z)-1-(4-(N-(4-fluorophenyl)-N′-hydroxyaminoiminomethyl)-1,2,5-oxadiazole-3-substituted)-3-(4-cyanophenyl)urea]: the half-inhibitory concentration (IC50) (in experiment [1]; against IDO1 enzyme) was above 1 µM in each case.
Turning to `N=C(NCCN)Nc1nonc1/C(=N/O)Nc1ccc(F)c(Br)c1` [Embodiment 153], the 50% inhibitory concentration (IC50) (in experiment [1]; at IDO1 enzyme) was below 0.001 µM each time.
`CS(=O)(=O)NCCNC(=O)Nc1nonc1/C(=N/O)Nc1ccc(F)c(Cl)c1` [Embodiment 29, (Z)-1-(4-(N-(3-chloro-4-fluorophenyl)-N′-hydroxyaminoiminomethyl)-1,2,5-oxadiazole-3-substituted)-3-(3-methamido-ethyl)urea]: the IC50 (in experiment [1]; against IDO1 enzyme) was below 0.001 µM each time.
As for `O=C(Nc1conc1/C(=N/O)Nc1ccc(F)c(Cl)c1)NC1CCCCC1` [Embodiment 114], the IC50 (in experiment [1]; at IDO1 enzyme) was below 0.001 µM in each case.
Consider `O=C(Nc1conc1/C(=N/O)Nc1ccc(F)c(Br)c1)NC1CCCCC1` [Embodiment 103], for which the IC50 (in experiment [1]; against IDO1 enzyme) was 0.1 to 1 µM throughout.
Take `O=C(Nc1nonc1/C(=N/O)Nc1ccc(F)c(Br)c1)NC1CCC1` [Embodiment 31, (Z)-1-(4-(N-(3-bromo-4-fluorophenyl)-N′-hydroxyaminoiminomethyl)-1,2,5-oxadiazole-3-substituted)-3-cyclobutylurea]: the half-maximal inhibitory concentration (IC50) (in experiment [1]; at IDO1 enzyme) was 0.1 to 1 µM throughout.
`O=C(Nc1nocc1/C(=N/O)Nc1ccc(F)c(Br)c1)NC1CCCC1` [Embodiment 83, (Z)-1-(4-(N-(3-bromo-4-fluorophenyl)-N′-hydroxyaminoiminomethyl)-isoxazole-3-substituted)-3-(cyclopentyl)urea]: the IC50 (in experiment [1]; at IDO1 enzyme) was above 1 µM each time.
`O=C(Nc1cocc1/C(=N/O)Nc1ccc(F)c(Br)c1)NC1CCNCC1` [Embodiment 64, (Z)-1-(4-(N-(3-bromo-4-fluorophenyl)-N′-hydroxyaminoiminomethyl)-furan-3-substituted)-3-(piperidine-4-substituted)urea]: the IC50 (in experiment [1]; on IDO1 enzyme) was 0.1 to 1 µM throughout.
Take `N=C(Nc1nonc1/C(=N/O)Nc1ccc(F)c(Br)c1)NC1CCNCC1` [Embodiment 148, (Z)-1-(4-(N-(3-bromo-4-fluorophenyl)-N′-hydroxyaminoiminomethyl)-1,2,5-oxadiazole-3-substituted)-3-(piperidine-4-substituted)guanidine]: the half-maximal inhibitory concentration (IC50) (in experiment [1]; at IDO1 enzyme) was below 0.001 µM throughout.
As for “(Z)-1-(4-(N-(3-bromo-4-fluorophenyl)-N′-hydroxyaminoiminomethyl)-isoxazole-3-substituted)-3-phenylurea [Embodiment 81]”, the IC50 (in experiment [1]; at IDO1 enzyme) was 0.1 to 1 µM in each case.
On to `N=C(Nc1nonc1/C(=N/O)Nc1ccc(F)c(Br)c1)NC1CCCCC1` [Embodiment 145, (Z)-1-(4-(N-(3-bromo-4-fluorophenyl)-N′-hydroxyaminoiminomethyl)-1,2,5-oxadiazole-3-substituted)-3-cyclohexylguanidine], for which the IC50 (in experiment [1]; against IDO1 enzyme) was below 0.001 µM each time.
In the case of `O=C(Nc1nonc1/C(=N/O)Nc1ccc(F)cc1)NC1CCCCC1` [Embodiment 52, (Z)-1-(4-(N-(4-fluorophenyl)-N′-hydroxyaminoiminomethyl)-1,2,5-oxadiazole-3-substituted)-3-cyclohexylurea], the half-maximal inhibitory concentration (IC50) (in experiment [1]; at IDO1 enzyme) was 0.1 to 1 µM in each case.
On to `COc1cccc(NC(=O)Nc2conc2/C(=N/O)Nc2ccc(F)c(Br)c2)c1` [Embodiment 101, (Z)-1-(4-(N-(3-bromo-4-fluorophenyl)-N′-hydroxyaminoiminomethyl)-isoxazole-3-substituted)-4-(3-methoxyphenyl)urea], for which the 50% inhibitory concentration (IC50) (in experiment [1]; against IDO1 enzyme) was 0.1 to 1 µM in each case.
Turning to `O/N=C(\Nc1ccc(F)c(Br)c1)c1nonc1NC(=S)Nc1ccccc1` [Embodiment 116, (Z)-1-(4-(N-(4-bromo-3-fluorophenyl)-N′-hydroxyaminoiminomethyl)-1,2,5-oxadiazole-3-substituted)-3-phenylthiourea], the half-maximal inhibitory concentration (IC50) (in experiment [1]; against IDO1 enzyme) was 0.1 to 1 µM each time.
Regarding `O=C(Nc1nocc1/C(=N/O)Nc1ccc(F)c(Br)c1)NC1CCC(O)CC1` (centres unmarked) [Embodiment 84, (Z)-1-(4-(N-(3-bromo-4-fluorophenyl)-N′-hydroxyaminoiminomethyl)-isoxazole-3-substituted)-3-(4-hydroxycyclohexyl)urea], the 50% inhibitory concentration (IC50) (in experiment [1]; at IDO1 enzyme) was 0.1 to 1 µM throughout.
Regarding `NS(=O)(=O)NCCCNC(=O)Nc1nonc1/C(=N/O)Nc1ccc(F)c(Br)c1` [Embodiment 18, (Z)-1-(4-(N-(3-bromo-4-fluorophenyl)-N′-hydroxyaminoiminomethyl)-1,2,5-oxadiazole-3-substituted)-3-(3-aminosulfonylamino-propyl)urea], the concentration for half-maximal inhibition (IC50) (in experiment [1]; on IDO1 enzyme) was below 0.001 µM each time.
For the molecule `N=C(Nc1nonc1/C(=N/O)Nc1ccc(F)c(Br)c1)NC1CCC(O)CC1` (centres unmarked) [Embodiment 147, (Z)-1-(4-(N-(3-bromo-4-fluorophenyl)-N′-hydroxyaminoiminomethyl)-1,2,5-oxadiazole-3-substituted)-3-(4-hydroxycyclohexyl)guanidine], the half-maximal inhibitory concentration (IC50) (in experiment [1]; against IDO1 enzyme) was below 0.001 µM throughout.
With `O=C(NCCCO)Nc1conc1/C(=N/O)Nc1ccc(F)c(Br)c1` [Embodiment 109], the 50% inhibitory concentration (IC50) (in experiment [1]; on IDO1 enzyme) was below 0.001 µM each time.
On to `O=C(Nc1ccc(C(F)(F)F)cc1)Nc1nonc1/C(=N/O)Nc1ccc(F)c(Br)c1` [Embodiment 6, (Z)-1-(4-(N-(3-bromo-4-fluorophenyl)-N′-hydroxyaminoiminomethyl)-1,2,5-oxadiazole-3-substituted)-3-(4-trifluorotolyl)urea], for which the IC50 (in experiment [1]; against IDO1 enzyme) was above 1 µM each time.
Consider `COc1ccc(NC(=N)Nc2conc2/C(=N/O)Nc2ccc(F)c(Cl)c2)cc1` [Embodiment 154, (Z)-1-(4-(N-(3-chloro-4-fluorophenyl)-N′-hydroxyaminoiminomethyl)-isoxazole-3-substituted)-4-(4-methoxyphenyl)guanidine], for which the half-maximal inhibitory concentration (IC50) (in experiment [1]; against IDO1 enzyme) was 0.1 to 1 µM throughout.
As for `CS(=O)(=O)N1CCC(NC(=O)Nc2nonc2/C(=N/O)Nc2ccc(F)c(Br)c2)CC1` [Embodiment 12, (Z)-1-(4-(N-(3-bromo-4-fluorophenyl)-N′-hydroxyaminoiminomethyl)-1,2,5-oxadiazole-3-substituted)-3-(1(methsulfonyl)piperidine-4-substituted)urea], the IC50 (in experiment [1]; against IDO1 enzyme) was 0.1 to 1 µM each time.
Take `COc1ccc(NC(=O)Nc2cocc2/C(=N/O)Nc2ccc(F)c(Br)c2)cc1` [Embodiment 58, (Z)-1-(4-(N-(3-bromo-4-fluorophenyl)-N′-hydroxyaminoiminomethyl)-furan-3-substituted)-3-(4-methoxyphenyl)urea]: the half-inhibitory concentration (IC50) (in experiment [1]; against IDO1 enzyme) was 0.1 to 1 µM throughout.

The IC50 is the point on the concentration scale where inhibition reaches its midpoint. Low readings indicate inhibition by little substance, high ones a need for much substance.
